Results on seven compounds are retold here after patent US20200405697A1, “Antitumor Agent” (Taiho Pharmaceutical Co., Ltd, priority 2017, published 2020).

Structures are written as SMILES. pIC50: −log10 of the molar value.

In test [1] the test system is A549 (Human lung cancer cell line). The test is described as follows: Effect of combination of sulfonamide compound and other antitumor agent (CellTiter-Glo, combination index): A549.
Test [2] relates to MV-4-11 (Human blood cancer cell line). The test is described as follows: Effect of combination of sulfonamide compound and other antitumor agent (CellTiter-Glo, combination index): MV-4-11. Background: ATP-based viability assays read luminescence as a measure of living cells.
Method: Each cell line was seeded at 90 L/well to a 96-well culture plate (Thermo Fisher Scientific, Inc.) according to the above tables. The cell-seeded plate was cultured in an incubator set to 37° C. and 500 CO2. On the day following seeding, varying concentrations of the sulfonamide compound and the other antitumor agent were added in combination to the cells. […] The serial dilutions of each compound, or DW was added at 5μL/well to the plate such that each compound and DW, or the sulfonamide compound and the other antitumor agent were combined. […] The plate after the addition was cultured at 37° C. for 3 days under 5% CO2 conditions.
Three days later, CellTiter-Glo(R) 2.0 Reagent (Promega Corporation) was added at 100 μL/well, and the amount of luminescence was measured using a plate reader EnSpire(R) Multimode Plate Reader (PerkinElmer Co., Ltd.).
An average value from 3 wells was calculated as to each drug condition from the obtained data, and cell survival rate normalized against control wells supplemented with the vehicle (DW) was calculated. A Fa (fractional inhibition) value was calculated by subtracting the cell survival rate from 1.
Test [3] addresses T1, human RNR (histidine tagged human M1 and human M2 proteins) (Homo sapiens, UniProt P23921).
T1 construct: made in house; host or cells: Escherichia coli
T1 sequence (P23921 1-792): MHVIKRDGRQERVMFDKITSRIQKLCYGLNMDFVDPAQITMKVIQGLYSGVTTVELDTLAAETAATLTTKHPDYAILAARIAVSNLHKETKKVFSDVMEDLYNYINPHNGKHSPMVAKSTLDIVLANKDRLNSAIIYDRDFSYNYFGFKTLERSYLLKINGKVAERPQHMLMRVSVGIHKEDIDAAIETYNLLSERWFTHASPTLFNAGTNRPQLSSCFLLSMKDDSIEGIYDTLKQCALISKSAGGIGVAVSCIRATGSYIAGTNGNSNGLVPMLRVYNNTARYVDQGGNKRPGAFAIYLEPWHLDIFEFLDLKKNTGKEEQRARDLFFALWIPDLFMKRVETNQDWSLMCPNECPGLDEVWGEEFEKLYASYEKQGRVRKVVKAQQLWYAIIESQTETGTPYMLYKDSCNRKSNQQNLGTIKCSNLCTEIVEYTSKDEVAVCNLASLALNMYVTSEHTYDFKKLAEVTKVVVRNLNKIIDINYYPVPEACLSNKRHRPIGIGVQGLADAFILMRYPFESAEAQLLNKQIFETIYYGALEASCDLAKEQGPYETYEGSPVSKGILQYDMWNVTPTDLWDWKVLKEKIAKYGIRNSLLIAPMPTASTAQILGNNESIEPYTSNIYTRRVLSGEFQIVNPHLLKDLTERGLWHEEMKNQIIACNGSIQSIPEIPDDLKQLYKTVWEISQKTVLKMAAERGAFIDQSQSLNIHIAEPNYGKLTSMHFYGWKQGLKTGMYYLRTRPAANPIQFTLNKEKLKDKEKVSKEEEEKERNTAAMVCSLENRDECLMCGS
The test is described as follows: Human RNR inhibition effect (dCDP formation from CDP). It counts as biochemical. The note with it: 10 μM CDP, 37° C. for 30 minutes, read-out: RNR inhibitory activity IC50. An outline of the steps:
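His-tagged human M1 (isoform 1) and N-terminal 59-aa-truncated M2 (isoform 2), E. coli-expressed, Ni-purified, preincubated 20 min with compound (1% DMSO). Reaction with 10 μM CDP, 2 mM ATP, 0.24 mM NADPH, 6 mM DTT, 4 mM Mg acetate, 100 mM KCl, 50 mM HEPES pH 7.2, 30 min at 37° C. dCDP formed quantified by reverse-phase HPLC after heat stop.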

[4] abbreviates: Example Compound 14 874 nM + Cytarabine 72.2 nM.
Where [5] appears, read: Example Compound 14 1310 nM + Cytarabine 108 nM.
Where [6] appears, read: Example Compound 14 1970 nM + Cytarabine 163 nM.
The mark [7] stands for this setting: Example Compound 14 2950 nM + Cytarabine 244 nM.
The mark [8] stands for this setting: Example Compound 14 4420 nM + Cytarabine 365 nM.
Where [9] appears, read: Example Compound 209A 188 nM + Cytarabine 72.2 nM.
The mark [10] stands for this setting: Example Compound 209A 282 nM + Cytarabine 108 nM.
Where [11] appears, read: Example Compound 209A 635 nM + Cytarabine 244 nM.
[12] abbreviates: Example Compound 209A 952 nM + Cytarabine 365 nM.
[13] abbreviates: Example Compound 235A 780 nM + Cytarabine 111 nM.
Where [14] appears, read: Example Compound 235A 1170 nM + Cytarabine 166 nM.
Where [15] appears, read: Example Compound 235A 1750 nM + Cytarabine 249 nM.
The mark [16] stands for this setting: Example Compound 5 247 nM + Cytarabine 175 nM.
[17] abbreviates: Example Compound 5 555 nM + Cytarabine 393 nM.
The mark [18] stands for this setting: Example Compound 5 833 nM + Cytarabine 590 nM.
Where [19] appears, read: Example Compound 5 1250 nM + Cytarabine 885 nM.
[20] abbreviates: Example Compound 14 519 nM + Cytarabine 175 nM.
Where [21] appears, read: Example Compound 14 1170 nM + Cytarabine 394 nM.
The mark [22] stands for this setting: Example Compound 14 1750 nM + Cytarabine 589 nM.
Where [23] appears, read: Example Compound 14 2630 nM + Cytarabine 886 nM.
Where [24] appears, read: Example Compound 209A 96.6 nM + Cytarabine 175 nM.
Where [25] appears, read: Example Compound 209A 217 nM + Cytarabine 393 nM.
Where [26] appears, read: Example Compound 209A 326 nM + Cytarabine 590 nM.
[27] abbreviates: Example Compound 235A 90.1 nM + Cytarabine 116 nM.
Setting [28] is: Example Compound 235A 135 nM + Cytarabine 174 nM.
[29] abbreviates: Example Compound 235A 304 nM + Cytarabine 393 nM.
Where [30] appears, read: Example Compound 235A 456 nM + Cytarabine 589 nM.
The mark [31] stands for this setting: Example Compound 235A 684 nM + Cytarabine 884 nM.

Turning to `Nc1ccn([C@@H]2O[C@H](CO)[C@@H](O)[C@@H]2O)c(=O)n1` [Cytarabine, cytarabine], the CI value in test [1] (setting [4]) stood at 0.670; in test [1] (setting [5]), 0.790; in test [1] (setting [6]), 0.616; in test [1] (setting [7]), 0.498; in test [1] (setting [8]) it was 0.490; in test [1] (setting [9]), 0.777. The CI value in test [1] (setting [10]) is on record as 0.759; in test [1] (setting [11]) it was 0.474; in test [1] (setting [12]), 0.574; in test [1] (setting [13]), 0.878; in test [1] (setting [14]), 0.693; in test [1] (setting [15]), 0.581. Besides, the CI value was 0.638 in test [2] (setting [16]); 0.553 in test [2] (setting [17]); 0.366 in test [2] (setting [18]); 0.386 in test [2] (setting [19]); 0.766 in test [2] (setting [20]); 0.599 in test [2] (setting [21]). In addition, the CI value in test [2] (setting [22]) is on record as 0.387; in test [2] (setting [23]), 0.269; in test [2] (setting [24]), 0.739; in test [2] (setting [25]), 0.510; in test [2] (setting [26]), 0.330; in test [2] (setting [27]), 0.740. For the same compound, the CI value in test [2] (setting [28]) is on record as 0.645; in test [2] (setting [29]), 0.510; in test [2] (setting [30]), 0.365; in test [2] (setting [31]), 0.374. In addition, the Fa value in test [1] (setting [4]) came to 0.3745; in test [1] (setting [5]), 0.4356; in test [1] (setting [6]) it was 0.6170; in test [1] (setting [7]), 0.7754; in test [1] (setting [8]), 0.8591; in test [1] (setting [9]), 0.3588. The Fa value was 0.4675 in test [1] (setting [10]); 0.7994 in test [1] (setting [11]); 0.8410 in test [1] (setting [12]); 0.4015 in test [1] (setting [13]); 0.6327 in test [1] (setting [14]); 0.8184 in test [1] (setting [15]). For the same compound, the Fa value in test [2] (setting [16]) amounted to 0.4093; in test [2] (setting [17]), 0.9212; in test [2] (setting [18]) it was 0.9948; in test [2] (setting [19]), 0.9986; in test [2] (setting [20]) it was 0.2908; in test [2] (setting [21]), 0.8743. Also, the Fa value in test [2] (setting [22]) was 0.9860; in test [2] (setting [23]) it was 0.9984; in test [2] (setting [24]), 0.5055; in test [2] (setting [25]) it was 0.9736; in test [2] (setting [26]), 0.9981; in test [2] (setting [27]), 0.1704. For the same compound, the Fa value in test [2] (setting [28]) turned out to be 0.4683; in test [2] (setting [29]), 0.9522; in test [2] (setting [30]) it was 0.9958; in test [2] (setting [31]), 0.9989.
One may read the pIC50 as −log10 of the IC50, conventionally taken in molar units. On to `Cc1ccc(F)c([C@@H](C)[C@H](NS(=O)(=O)c2ccc(Br)c(C#N)c2)c2n[nH]c(=O)o2)c1C` [Example 343, 4-bromo-3-cyano-N-((1S,2R)-(6-fluoro-2,3-dimethylphenyl)-1-(5-oxo-4,5-dihydro-1,3,4-oxadiazol-2-yl)propyl)benzenesulfonamide], for which the pIC50 in test [3] was 6.19.
Same read-out and setting: in the case of `COc1ccc(-c2cc(S(=O)(=O)N[C@H](c3n[nH]c(=O)o3)[C@H](C)c3c(F)ccc(C)c3C)ccc2Cl)cc1` [Example 344, 6-chloro-N-((1S,2R)-2-(6-fluoro-2,3-dimethylphenyl)-1-(5-oxo-4,5-dihydro-1,3,4-oxadiazol-2-yl)propyl)-4′-methoxy-[1,1′-biphenyl]-3-sulfonamide] it was 6.14.
For the compound `COc1ccccc1-c1ccc(C(N)=O)c(S(=O)(=O)N[C@H](c2n[nH]c(=O)o2)[C@H](C)c2c(F)ccc(C)c2C)c1` [Example 345], the negative logarithm of the IC50 (pIC50) in test [3] was 6.60.
For `COc1cc(C(N)=O)ccc1S(=O)(=O)N[C@H](c1n[nH]c(=O)o1)[C@H](C)c1c(F)ccc(C)c1C` [Example 346, 4-(N-((1S,2R)-(6-fluoro-2,3-dimethylphenyl)-1-(5-oxo-4,5-dihydro-1,3,4-oxadiazol-2 yl)propyl)sulfamoyl)-3-methoxybenzamide], in test [3], the pIC50 is 6.38.
On the same count and under the same terms, in the case of `COc1cc(Cl)ccc1S(=O)(=O)N[C@H](c1noc(=O)[nH]1)[C@H](C)c1c(F)ccc(C)c1C` [Example 349, 4-chloro-N-((1S,2R)-2-(6-fluoro-2,3-dimethylphenyl)-1-(5-oxo-4,5-dihydro-1,2,4-oxadiazol-3-yl)propyl)-2-methoxybenzenesulfonamide] it was 6.60; in that of `COc1cc(Cl)ccc1S(=O)(=O)N[C@H](c1n[nH]c(=S)[nH]1)[C@H](C)c1c(F)ccc(C)c1C` [Example 350], 6.34.
